Measured values: patent publication US7226949B2, “Compounds of use in the treatment of epilepsy, seizure, and electroconvulsive disorders” (University of Kentucky, priority 2002, dated 2007)
Like-named read-outs stand apart in the source and are kept apart here.

Assays:
MES-induced seizure [1] = assay: Maximal Electroshock Seizure (MES) test in mice, intraperitoneal administration; assay type: in vivo
Excerpt: (§1) The Maximal Electroshock Seizure (MES) or Maximal Seizure Pattern Test
(§2) The MES is an experimental model for generalized tonic-clonic seizures that identifies compounds that prevent seizure spread. The MES model is highly reproducible and has a consistent endpoint. An advantage of this model is that the behavioral and electrographic seizures are consistent with those observed in humans.
(§3) In the MES test, the animal receives an electrical stimulus, 0.2 seconds in duration, via corneal electrodes primed with an electrolyte solution containing an anesthetic agent. The 0.2 second stimulation is generated with 150 mA in rats and 50 mA in mice at 60 Hz. […] In rats, the compound is administered orally, while mice receive the agent via intraperitoneal injection. The test endpoint, electrogenic seizure, is manifested as hindlimb tonic extension.

mice = assay: Minimal neurotoxicity in mice, rotorod test; conditions: for toxicity: 100 mg/kg
Experimental: In mice, the test compound is administered at doses of 30, and 100 mg/kg prior to evaluation in the toxicity screens. The mice are tested at 0.5 hours and 4 hours after intraperitoneal administration of the test compound.
Toxicity in mice weighing between 18 and 25.5 g is assessed using the standardized rotorod test [9]. For each compound tested, a minimum of 18 animals are evaluated for neurotoxicity. Control mice can maintain their equilibrium for an extended period of time when they are placed on a 6-rpm rotation rod. Neurologically impaired animals cannot maintain equilibrium for one minute in each of three successive trials.

MES-induced seizure [2] = assay: Maximal Electroshock Seizure (MES) test in rats, oral administration; assay type: in vivo; conditions: for Percentage of rats in which the test compound prevented MES-induced seizure: 30 mg/kg oral; for Time to Peak Effect: MES test; for ED50: read-out: ED50 required to inhibit MES-induced seizure
Excerpt: as §1, §2, §3
A full dose-response curve was also generated in rats to determine the ED50 value (n=8 at each time point). […] The ED50 of 4,4′-thiodianiline was evaluated in both rats and mice.

rats = assay: Minimal neurotoxicity in rats, positional sense and gait and stance tests; assay type: in vivo; conditions: for toxicity: 250 mg/kg
Excerpt: If the rat experiences neurological toxicity, it will not be able to quickly lift its leg quickly back to a normal position.
In the gait and stance test, neurotoxicity is indicated by a circular or zigzag gait after administration of the test compound. In addition, ataxia, abnormal spread of the legs, abnormal posture, tremor hyperactivity, lack of exploratory behavior, somnolence, stupor, or catalepsy can indicate neurotoxicity.

6 Hz seizures = assay: 6 Hz kindling model; assay type: in vivo, mice
Experimental: The 6 Hz kindling model is another experimental seizure model that effectively detects compounds with anti-seizure activity. This screen is used to evaluate the ability of a compound to prevent the acquisition of focal seizures; in particular, the capacity of a compound to prevent the development of seizures induced by a low-frequency (6 Hz), long duration (three seconds) stimulus in electrode […] is evaluated. Several of the most promising compounds were evaluated in this screen to further characterize their anti-seizure activity.
In the 6 Hz kindling test, mice are implanted with corneal electrodes. The test compound is administered (i.p.) to the animal at 0.25, 0.5, 1, 2, or 4 hours prior seizure induction. The seizure is initiated by delivering a current (32 mA at 6 Hz for three seconds) to the animal through the corneal electrodes. The resulting psychomotor seizure is usually characterized by a minimal clonic phase followed by stereotyped, automatistic behaviors. This response is analogous to the aura of human patients with partial seizures.

[3] = system: focal seizures in hippocampal kindled rats; assay: Hippocampal kindling model; assay type: in vivo, Sprague-Dawley rats; conditions: hippocampal kindling model; not as effective as 4,4′-thiodianiline
Excerpt: Hippocampal Kindling Model
The hippocampal kindling model is an experimental seizure model used to simulate focal seizures. This model evaluates the capacity of a compound to affect both the expression and acquisition of focal seizures. In addition, kindled seizures provide a methodology for studying complex brain networks that may contribute to the spread and generalizations of seizures from a focus. The hippocampal kindling model has the advantage of being one of the only kindling models that can evaluate the temporal effects of an agent in a single animal. For this assessment, bipolar electrodes are surgically implanted in the ventral hippocampus of adult male Sprague-Dawley rats (275-300 g) under ketamine-xylazine anesthesia. Following a one-week recovery period, stage five behavioral seizures are induced by stimulating the rat 12 times per day with 50 Hz, 10 s train of 1 ms biphasic 200 μA pulses delivered every 30 min for six hours on alternating days. After five stimulus days, the animal has had 60 stimulations. A drug free control period with supramaximal stimulations is used to verify the stability of a stage five generalized seizure before the anticonvulsant activity of a drug is measured.
This screen is used to measure the capacity of the drug to prevent the expression of focal seizures. […] The animal is exposed to an initial stimulation of 20 μA; the stimulation is increased in 10 μA increments every one-two minutes until an afterdischarge is recorded. After the stability of the stage five seizure is established, the drug candidate is administered to the rats via intraperitoneal injection 15 minutes after the last control stimulation. Starting with the first dose, the anticonvulsant activity of the test agent is measured every thirty minutes for four hours. Following each stimulation, Racine seizure scores and afterdischarge durations are compared to control values to quantify the anti-convulsant activity of the agent. The Racine seizure scores vary from stage 1 to 5. The stages are characterized according to the following criteria: Stage 1—mouth and facial clonus, Stage 2—stage 1 and head nodding, Stage 3—stage 2 and forelimb clonus, Stage 4—stage 3 and rearing, Stage 5—stage 4 and repeated rearing and falling. Since a single animal is used, each rat serves as its own control.
4,4′-Thiodianiline was used in the rat hippocampal kindled rats to screen to measure its anticonvulsant potential. Doses of 12.5, 25, 50 and 100 mg/kg were evaluated at a minimum of seven time points (n=7 for each dose and each time point). […] After oral administration of the test compound stimulation, the Racine seizure scores and afterdischarge durations were measured and are shown below. The Racine seizure scores dropped from between a stage 4 and stage 5 seizure for control measurements to between a stage 1 and stage 2 seizure after treatment with 4,4′-thiodianiline.

[4] = 30 mg/kg i.p., 0.5 h after administration
[5] = 30 mg/kg i.p., 4.0 h after administration
[6] = 100 mg/kg i.p., 0.5 h after administration
[7] = 100 mg/kg i.p., 4.0 h after administration
[8] = 300 mg/kg i.p., 0.5 h after administration
[9] = 300 mg/kg i.p., 4.0 h after administration
[10] = rat, oral administration, at the time of peak effect, n=8
[11] = 30 mg/kg i.p., 0.25 h after administration
[12] = 30 mg/kg i.p., 1.0 h after administration
[13] = 100 mg/kg i.p., 0.25 h after administration
[14] = 100 mg/kg i.p., 1.0 h after administration
[15] = 100 mg/kg i.p., 2.0 h after administration

Compound | Percentage of mice in which the test compound prevented MES-induced seizure (MES-induced seizure [1]; [4]) [%] | Percentage of mice in which the test compound prevented MES-induced seizure (MES-induced seizure [1]; [5]) [%] | Percentage of mice in which the test compound prevented MES-induced seizure (MES-induced seizure [1]; [6]) [%] | Percentage of mice in which the test compound prevented MES-induced seizure (MES-induced seizure [1]; [7]) [%] | Percentage of mice in which the test compound prevented MES-induced seizure (MES-induced seizure [1]; [8]) [%] | Percentage of mice in which the test compound prevented MES-induced seizure (MES-induced seizure [1]; [9]) [%] | toxicity (mice) | Percentage of rats in which the test compound prevented MES-induced seizure (MES-induced seizure [2]; 0.25 h after administration) [%] | Percentage of rats in which the test compound prevented MES-induced seizure (MES-induced seizure [2]; 0.5 h after administration) [%] | Percentage of rats in which the test compound prevented MES-induced seizure (MES-induced seizure [2]; 1.0 h after administration) [%] | Percentage of rats in which the test compound prevented MES-induced seizure (MES-induced seizure [2]; 2.0 h after administration) [%] | Percentage of rats in which the test compound prevented MES-induced seizure (MES-induced seizure [2]; 4.0 h after administration) [%] | Time to Peak Effect (MES-induced seizure [2]; rat, oral administration) [h] | toxicity (rats) | Percentage of mice in which the test compound prevented seizure in the 6 Hz test (6 Hz seizures; [11]) [%] | Percentage of mice in which the test compound prevented seizure in the 6 Hz test (6 Hz seizures; [4]) [%] | Percentage of mice in which the test compound prevented seizure in the 6 Hz test (6 Hz seizures; [12]) [%] | Percentage of mice in which the test compound prevented seizure in the 6 Hz test (6 Hz seizures; [13]) [%] | Percentage of mice in which the test compound prevented seizure in the 6 Hz test (6 Hz seizures; [6]) [%] | Percentage of mice in which the test compound prevented seizure in the 6 Hz test (6 Hz seizures; [14]) [%] | other results
Nc1ccc(Oc2ccc(N)cc2)cc1 [4,4′-diaminodiphenyl ether] | 0 | 0 | 100 | 100 | 100 | 100 | no significant toxicity | 100 | 100 | 75 | 75 | 100 | 6 | no significant toxicity | 0 | 50 | 25 | 100 | 100 | 100 | ED50 required to inhibit MES-induced seizure (MES-induced seizure [2]; [10]): 5.24 ± 4.67 mg/kg; Percentage of mice in which the test compound prevented seizure in the 6 Hz test (6 Hz seizures; 30 mg/kg i.p., 2.0 h after administration): 25%; Percentage of mice in which the test compound prevented seizure in the 6 Hz test (6 Hz seizures; [15]): 100%; Percentage of mice in which the test compound prevented seizure in the 6 Hz test (6 Hz seizures; [7]): 0%; expression of fully kindled seizures [3]: had the capacity to block the expression of fully kindled seizures
Nc1ccc(Cc2ccc(N)cc2)cc1 [4,4′-methylenedianiline] | 0 | 0 | 100 | 0 | 100 | 100 | no significant toxicity | 100 | 75 | 92 | 100 | 50 | 1 | no significant toxicity | 0 | 0 | 0 | 100 | 100 | 100 | ED50 (MES-induced seizure [2]; Rattus norvegicus, po): 10.6 ± 5.88 mg/kg; Percentage of mice in which the test compound prevented seizure in the 6 Hz test (6 Hz seizures; [15]): 0%; Percentage of mice in which the test compound prevented seizure in the 6 Hz test (6 Hz seizures; [7]): 0%
Nc1ccc(C(=O)c2ccc(N)cc2)cc1 [4,4′-diaminobenzophenone] | 0 | 0 | 100 | 100 | 100 | 100 | – | 50 | 100 | 75 | 100 | 75 | 1 | – | 0 | 0 | 0 | 100 | 100 | 100 | neurotoxicity (mice; doses below 100 mg/kg): showed no neurotoxicity; ED50 (MES-induced seizure [2]; [10]): 7.15 mg/kg; acute neurotoxic effects (rats; 0.25 to 24 hours after oral administration, doses as high as 500 mg/kg): None of the rats tested at any timepoints; Percentage of mice in which the test compound prevented seizure in the 6 Hz test (6 Hz seizures; [15]): 0%; Percentage of mice in which the test compound prevented seizure in the 6 Hz test (6 Hz seizures; [7]): 0%
Nc1ccc(NC(=O)c2ccc(N)cc2)cc1 [4,4′-Diaminobenzanalide] | – | – | – | – | – | – | – | – | – | – | – | – | – | – | – | – | – | – | – | – | expression of fully kindled seizures [3]: had the capacity to block the expression of fully kindled seizures
Nc1ccc(Nc2cccc(N)c2)cc1 [(3-aminophenyl)-(4-aminophenyl) amine] | 0 | 0 | 100 | 100 | 100 | 100 | no significant toxicity | 0 | 50 | 75 | 50 | 50 | 2 | no significant toxicity | – | – | – | – | – | – | ED50 (MES-induced seizure [2]; [10]): 31.7 ± 24.4 mg/kg
